Reference: patent US5157020A, “Synthetic senescent cell antigen” (Research Corporation Tech., Inc., priority 1990, dated 1992)

Target: T1, band 3 (Homo sapiens, UniProt P02730)
T1 construct: endogenous in cells; host or cells: stored red blood cells (middle-aged cells stored in Alsever's for 5 wks at 4 C)
T1 sequence (P02730 1-911): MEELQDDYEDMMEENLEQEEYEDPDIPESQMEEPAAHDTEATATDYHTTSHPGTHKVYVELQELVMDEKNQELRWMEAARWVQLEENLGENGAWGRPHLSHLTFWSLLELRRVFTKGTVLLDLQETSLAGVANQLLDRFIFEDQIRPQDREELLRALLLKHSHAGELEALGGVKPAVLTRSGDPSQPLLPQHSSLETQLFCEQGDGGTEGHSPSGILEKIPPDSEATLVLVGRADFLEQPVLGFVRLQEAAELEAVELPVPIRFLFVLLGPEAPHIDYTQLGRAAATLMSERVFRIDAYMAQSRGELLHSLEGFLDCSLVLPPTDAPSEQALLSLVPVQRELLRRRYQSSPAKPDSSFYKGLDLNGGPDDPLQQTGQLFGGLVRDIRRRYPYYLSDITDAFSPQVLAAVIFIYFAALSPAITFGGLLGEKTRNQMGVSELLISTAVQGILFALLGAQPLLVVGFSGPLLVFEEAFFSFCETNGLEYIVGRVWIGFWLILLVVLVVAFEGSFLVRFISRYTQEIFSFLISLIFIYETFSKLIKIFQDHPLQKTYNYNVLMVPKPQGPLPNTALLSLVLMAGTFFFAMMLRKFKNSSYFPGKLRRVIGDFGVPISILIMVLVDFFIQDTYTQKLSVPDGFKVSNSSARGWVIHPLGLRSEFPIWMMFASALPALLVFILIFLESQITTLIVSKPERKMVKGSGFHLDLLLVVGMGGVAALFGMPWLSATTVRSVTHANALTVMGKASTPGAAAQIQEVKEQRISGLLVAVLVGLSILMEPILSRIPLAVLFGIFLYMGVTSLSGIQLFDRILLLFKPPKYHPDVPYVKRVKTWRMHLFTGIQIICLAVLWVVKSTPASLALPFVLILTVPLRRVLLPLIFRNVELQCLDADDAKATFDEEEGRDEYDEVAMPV
Experiment: DIDS treatment of stored cells prior to incubation with senescent cell IgG
Assay type: cell-based
Conditions: stored cells incubated with 25 uM DIDS for 90 min at room temperature before senescent cell IgG
Procedure: Since DNP and DIDS modification of ANION 1 and COOH abolished inhibition of senescent cell IgG binding, we reasoned that DIDS binding to band 3 lysines in whole cells should interfere with senescent cell IgG binding. Stored cells were incubated with 25 uM DIDS for 90 min at room temperature prior to incubation with senescent cell IgG. […] Another possibility is that DIDS binding perturbs the configuration of the molecule so that the binding site is altered. However, since our studies indicate that the actual antigenic determinants reside on ANION 1 and COOH (Example 1), it is unlikely that a distant perturbation of the antigenic site by DIDS binding is responsible. It is more likely that a DIDS reactive lysine lies in or near enough to the antigenic site to cause steric hindrance.

## O=S(=O)(O)c1cc(N=C=S)ccc1CCc1ccc(N=C=S)cc1S(=O)(=O)O [DIDS, diisothiocyano dihydrostilbene disulphonate]
  inhibition of senescent cell IgG binding: 54±3%
